Laboratory results as given in patent US11951131B2, “Anti-SLAMF7 chimeric antigen receptors” (The United States of America, as represented by the …, priority 2018, dated 2024).
“Also recorded” adds a separate entry of the source.

Columns and labels:
MM.1S = test: IFN-gamma ELISA, CAR T cells with MM.1S target cells; assay type: cell-based, human
Source text: (§1) MM.1S is a SLAMF7^+ multiple myeloma cell line that was obtained from American Type Culture Collection (ATCC). A549 is a BCMA-negative lung cancer cell line (ATCC). TC71 is a BCMA-negative sarcoma cell line. CCRF-CEM, 293T, and A549 are SLAMF7-negative cell lines (ATCC). COL0207, HepG2, U251, Panc10.05, and TC71 are […] that were kind gifts from Dr. Steven Rosenberg, National Cancer Institute. SLAMF7-K562 are K562 cells (ATCC) which were transduced with the gene for full-length SLAMF7. SLAMF7-RPMI are RPMI8226 cells (ATCC) which were transduced with the gene for full-length SLAMF7. NGFR-K562 are K562 cells which were transduced with the gene for low-affinity nerve growth factor (Kochenderfer et al., J. Immunother., 32(7): 689-702 (2009)). All of the human samples mentioned were obtained from patients enrolled in IRB-approved clinical trials at the National Cancer Institute.
(§2) One-hundred thousand SLAMF7^+ or SLAMF7-negative target cells were combined with 100,000 CAR-transduced T cells in duplicate wells of a 96 well round bottom plate in 200 µL of AIM V™ medium (Invitrogen) plus 5% human serum. The plates were incubated at 37° C. for 18-20 hours. Following the incubation, ELISAs (enzyme-linked immunosorbent assays) for IFNγ were performed by using standard methods.
(§3) All values are pg/mL of IFN-gamma. T cells that were either untransduced or transduced with one of the indicated CARs were cultured with target cells overnight, and a standard IFN-gamma ELISA was performed on the culture supernatant.

[1] = Signs of CAR T-cell-mediated toxicity in mice; assay type: in vivo; settings: mice after CAR T-cell infusion
Description: First, MM.1S human SLAMF7^+ multiple myeloma cell line tumors were established in immunodeficient mice. In this model, the MM.1S cells formed a solid cutaneous mass. Measurable tumors were allowed to develop over 7 days, and then the mice were treated with a single intravenous infusion of MSGV1-IC9-Luc90-CD828Z-transduced human T cells. NSG mice (NOD.Cg-Prkdc^scid Il2rg^tm1Wjl/SzJ) from The Jackson Laboratory, Bar Harbor, Me., were used. Mice received intradermal injections of 4×10^6 MM.1S cells. The cells were suspended in a 1:1 mixture of MATRIGEL™ gelatinous protein mixture (BD Biosciences) and PBS (Phosphate-buffered saline) for injection. Tumors were allowed to grow for 7 days, and then each mouse received a single intravenous infusion of human T cells that were transduced with one of 3 CARs: IC9-Luc90-CD828Z (suicide gene+anti-SLAMF7 CAR), Luc90-CD828Z (anti-SLAMF7 CAR alone), or a negative-control anti-CD19 CAR Hu19-CD828Z. A 4th group was left untreated. All groups included 5 mice. After CAR T-cell infusion, the tumors were measured with calipers every 3 days. The longest length and the length perpendicular to the longest length and the tumor thickness were multiplied together to obtain the tumor volume in mm^3. When the longest length reached 15 mm, mice were sacrificed. Animal studies were approved by the National Cancer Institute Animal Care and Use Committee. […]

CCRF-CEM = test: IFN-gamma ELISA, CAR T cells with CCRF-CEM target cells; assay type: cell-based, human
Source text: as §1, §2, §3

SLAMF7-K562 target cells = test: CFSE proliferation assay; assay type: cell-based, human; settings: SLAMF7-K562 versus NGFR-K562 target cells, 4 days (FIGS. 8B, 8C)
Source text: Cocultures were set up in 24-well plates. Target cells included in cocultures were either 0.5×10^6 irradiated SLAMF7-K562 cells or 0.5×10^6 irradiated NGFR-K562 cells. The cocultures also included 1×10^6 T cells from cultures that had been transduced with either […]. The T cells were labeled with carboxy fluorescein diacetate succinimidyl ester (CFSE, Invitrogen) as previously described. The medium used in the cocultures was AIM V™ (Invitrogen) plus 5% human AB serum. IL-2 was not added to the medium. Four days after initiation, the live cells in each coculture were counted with trypan blue for dead cell exclusion, and flow cytometry was performed by Protein L staining.

IC9-expressing T cells = test: 6-hour and 48-hour post-rimiducid T cell death analysis; assay type: cell-based, human; settings: for elimination of CAR T cells when AP1903 was added to the T-cell cultures: per construct, in words
Description: On day 8 of culture, 1 million T cells from cultures that were either untransduced or transduced with one of the anti-SLAMF7 CARs cells were suspended at 1×10^6 T cells/mL in AIM V™ media (Invitrogen) plus 300 IU of interleukin-2. One million cells were added to each of 4 wells of a 12-well plate. A different concentration of AP1903 (MedChem Express, Princeton, N.J.) from was added to each well. AP1903 is also referred to as rimiducid. The concentrations of AP1903 evaluated were: 0, 1, 10, or 100 ng/mL.
Six hours and 48 hours after these cultures were set up, the cells were counted, washed, and stained with Protein L as described above. Next, the cells were washed twice with PBS, re-suspended in Annexin V binding buffer (BD Biosciences), and incubated with allophycocyanin-conjugated Annexin V (BD Biosciences) and 7AAD (BD Biosciences) for 15 minutes (mins) at room temp. The cells were immediately analyzed by flow cytometry.

| Substance | IFN-gamma, MM.1S (MM.1S; Table E) [pg/mL] | signs of CAR T-cell-mediated toxicity [1] | IFN-gamma, CCRF-CEM (CCRF-CEM; Table E) [pg/mL] | proliferation (CFSE dilution) (SLAMF7-K562 target cells) | elimination of CAR^+ T cells, comparison of the two constructs (IC9-expressing T cells; IC9-Luc90-CD828Z compared with Luc90-CD828Z-IC9) | elimination of CAR T cells when AP1903 was added to the T-cell cultures (IC9-expressing T cells) | IFN-gamma, target cells MM.1S (MM.1S; Table C) [pg/mL] | IFN-gamma, target cells CCRF-CEM (CCRF-CEM; Table C) [pg/mL] |
| --- | --- | --- | --- | --- | --- | --- | --- | --- |
| IC9-Luc90-CD828Z: CAR plus suicide gene construct (SEQ ID NO: 31): IC9 suicide gene 5′ to the CAR, T2A, Luc90-CD828Z | 1849 | did not exhibit any signs of CAR T-cell-mediated toxicity; also recorded: did not exhibit ruffled fur or decreased activity; also recorded: no toxicity | 33 | proliferated specifically in response to SLAMF7^+ target cells; also recorded: proliferated more | slightly superior | efficiently eliminated |  |  |
| Luc90-CD828Z: anti-SLAMF7 CAR (SEQ ID NO: 27): murine Luc90 scFv, human CD8a hinge and TM, CD28 and CD3ζ domains; tested as transduced T cells |  | did not exhibit ruffled fur or decreased activity |  | proliferated specifically in response to SLAMF7^+ target cells |  | efficiently eliminated | 4269 | 16 |
